Values quoted from earlier work, collected in patent publication US6011041A, “Use of anhydrovinblastine” (priority 1996, dated 2000).
Where a name gives a salt, the structure may show the parent alone.

Details: relative to other vinca alkaloids; cited from earlier work

## CC[C@]1(O)C[C@H]2CN(CCc3c([nH]c4ccccc34)[C@@](C(=O)OC)(c3cc4c(cc3OC)N(C=O)[C@H]3[C@@](O)(C(=O)OC)[C@H](OC(C)=O)[C@]5(CC)C=CCN6CC[C@]43[C@@H]65)C2)C1 [vincristine, Sulfate of 22-oxovincaleukoblastine]
  terminal elimination phase of plasma clearance: extended terminal elimination phase of plasma clearance
